Reference: patent US9216968B2, “Heterocyclic derivative and pharmaceutical drug” (NIPPON SHINYAKU CO., LTD., priority 2011, dated 2015)
Where a name gives a salt, the structure may show the parent alone.

Tests used:
human mPGES-1 = human mPGES-1 (Homo sapiens (Human), UniProt O14684); assay: mPGES-1 inhibiting activity (microsome fractions, PGE2 by HTRF); assay type: biochemical; settings: microsomes from CHO-K1 cells transfected with human mPGES-1; PGH2 1 μM, 4° C., 60 seconds; read-out: mPGES-1 Inhibition IC50
Outline: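 PGE2 formation read by HTRF after 60 s at 4 °C with 1 μM PGH2 substrate, following 20 min compound preincubation (1% DMSO) with human mPGES-1 microsomes from transfected CHO-K1 cells. Buffer: potassium phosphate, reduced glutathione, pH 7.4; IC50 from activity relative to enzyme-free blank.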

A549 cells = assay: Inhibition of PGE2 production in A549 cell (IL-1β stimulated); assay type: cell-based, human; settings: IL-1β 5 ng/well, PGE2 in culture medium
Outline: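 After IL-1β (5 ng/well) stimulation for 24 h at 37 °C, following a 60-min compound pretreatment in RPMI with 3% FBS, medium PGE2 (HTRF) and PGF2α (EIA) from human A549 cells were quantified. 100% activity set as IL-1β-induced minus basal production; IC50 calculated.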

human mPGES-1, sequence (O14684 whole entry): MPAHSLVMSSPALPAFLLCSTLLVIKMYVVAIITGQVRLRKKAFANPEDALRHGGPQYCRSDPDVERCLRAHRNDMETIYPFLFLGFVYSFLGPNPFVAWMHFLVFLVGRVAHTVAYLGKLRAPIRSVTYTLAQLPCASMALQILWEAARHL

| Compound | IC50 (human mPGES-1) [nM] | IC50 (A549 cells; Homo sapiens, A549, 24 h) [nM] | IC50 (A549 cells; 24 hours, hydrochloride) [nM] |
| --- | --- | --- | --- |
| Cc1c(Cl)cccc1NC(=O)c1cc(NC(=O)c2c(Cl)cccc2Cl)cc2[nH]c([C@H]3CCCO3)nc12 [Example 128, N-(3-Chloro-2-methylphenyl)-6-{[(2,6-dichlorophenyl)carbonyl]amino}-2-[(2R)-tetrahydrofuran-2-yl]-1H-benzimidazole-4-carboxamide hydrochloride] | 1 | 253 |  |
| COCC(C)(C)CNc1nc2c(C(=O)Nc3cccc(Cl)c3C)cc(NC(=O)c3cc(Cl)ccc3Cl)cc2[nH]1 [Example 190, N-(3-Chloro-2-methylphenyl)-6-{[(2,5-dichlorophenyl)carbonyl]amino}-2-[(3-methoxy-2,2-dimethylpropyl)amino]-1H-benzimidazole-4-carboxamide hydrochloride] | 0.1 | 7 |  |
| Cc1c(Cl)cccc1NC(=O)c1cc(NC(=O)c2ccccc2C(F)(F)F)cc2[nH]c(NCCN3CCOCC3)nc12 [Example 146, N-(3-Chloro-2-methylphenyl)-2-{[2-(morpholin-4-yl)ethyl]amino}-6-({[2-(trifluoromethyl)phenyl]carbonyl}amino)-1H-benzimidazole-4-carboxamide hydrochloride] | 3.1 | 129 |  |
| Cc1c(Cl)cccc1NC(=O)c1cc(NC(=O)c2ccccc2C(F)(F)F)cc2[nH]c([C@H]3CCCO3)nc12 [Example 64, N-(3-Chloro-2-methylphenyl)-2-[(2R)-tetrahydrofuran-2-yl]-6-({[2-(trifluoromethyl)phenyl]carbonyl}amino)-1H-benzimidazole-4-carboxamide hydrochloride] | 2.3 |  | 20.1 |
| CCn1cnc2c(C(=O)NCc3ccccc3C(F)(F)F)cc(NC(=O)c3ccccc3C(F)(F)F)cc21 [Example 51, 1-Ethyl-N-[2-(trifluoromethyl)benzyl]-6-({[2-(trifluoromethyl)phenyl]carbonyl}amino)-1H-benzimidazole-4-carboxamide] | 120 | 330 |  |
| Cc1c(Cl)cccc1NC(=O)c1cc(NC(=O)c2ccccc2C(F)(F)F)cc2[nH]c(CC(C)C)nc12 [Example 59, N-(3-Chloro-2-methylphenyl)-2-(2-methylpropyl)-6-({[2-(trifluoromethyl)phenyl]carbonyl}amino)-1H-benzimidazole-4-carboxamide hydrochloride] | 2.1 | 12.9 |  |
| COCc1nc2c(C(=O)Nc3cccc(Cl)c3C)cc(NC(=O)c3c(C)cccc3Cl)cc2[nH]1 [Example 104, N-(3-Chloro-2-methylphenyl)-6-{[(2-chloro-6-methylphenyl)carbonyl]amino}-2-(methoxymethyl)-1H-benzimidazole-4-carboxamide hydrochloride] | 2.9 | 71.1 |  |
| Cc1c(Cl)cccc1NC(=O)c1cc(NC(=O)c2ccccc2C(F)(F)F)cc2[nH]c(N3CCOCC3)nc12 [Example 156, N-(3-Chloro-2-methylphenyl)-2-(morpholin-4-yl)-6-({[2-(trifluoromethyl)phenyl]carbonyl}amino)-1H-benzimidazole-4-carboxamide] | 1.6 | 24.6 |  |
| COCCCc1ccc(Cl)c(C(=O)Nc2cc(C(=O)Nc3cccc(Cl)c3C)c3nc(COC)[nH]c3c2)c1 [Example 116, 6-({[2-Chloro-5-(3-methoxypropyl)phenyl]carbonyl}amino)-N-(3-chloro-2-methylphenyl)-2-(methoxymethyl)-1H-benzimidazole-4-carboxamide hydrochloride] | 9.7 | 252 |  |
| Cc1c(Cl)cccc1NC(=O)c1cc(NC(=O)c2ccccc2C(F)(F)F)cc2[nH]c(NC[C@H]3CCCO3)nc12 [Example 169, N-(3-Chloro-2-methylphenyl)-2-{[(2R)-tetrahydrofuran-2-ylmethyl]amino}-6-({[2-(trifluoromethyl)phenyl]carbonyl}amino)-1H-benzimidazole-4-carboxamide hydrochloride] | 2.4 | 88.6 |  |
| COCc1nc2c(C(=O)Nc3cccc(Cl)c3C)cc(NC(=O)c3cc(F)ccc3C(F)(F)F)cc2[nH]1 [Example 112, N-(3-Chloro-2-methylphenyl)-6-({[5-fluoro-2-(trifluoromethyl)phenyl]carbonyl}amino)-2-(methoxymethyl)-1H-benzimidazole-4-carboxamide hydrochloride] | 2.6 | 187 |  |
| Cc1c(Cl)cccc1NC(=O)c1cc(NC(=O)c2ccccc2C(F)(F)F)cc2[nH]c(N3CCCCC3)nc12 [Example 142, N-(3-Chloro-2-methylphenyl)-2-(piperidin-1-yl)-6-({[2-(trifluoromethyl)phenyl]carbonyl}amino)-1H-benzimidazole-4-carboxamide hydrochloride] | 0.4 | 82.7 |  |
| COCCOCc1nc2c(C(=O)Nc3cccc(Cl)c3C)cc(NC(=O)c3ccccc3C(F)(F)F)cc2[nH]1 [Example 74, N-(3-Chloro-2-methylphenyl)-2-[(2-methoxyethoxy)methyl]-6-({[2-(trifluoromethyl)phenyl]carbonyl}amino)-1H-benzimidazole-4-carboxamide hydrochloride] | 71.3 | 10.4 |  |
| Cc1c(Cl)cccc1NC(=O)c1cc(NC(=O)c2ccccc2C(F)(F)F)cc2[nH]c(C3(C)CC3)nc12 [Example 85, N-(3-chloro-2-methylphenyl)-2-(1-methylcyclopropyl)-6-({[2-(trifluoromethyl)phenyl]carbonyl}amino)-1H-benzimidazole-4-carboxamide] | 0.5 | 3.7 |  |
| Cc1c(Cl)cccc1NC(=O)c1cc(NC(=O)c2ccccc2C(F)(F)F)cc2[nH]c(NCCN(C(C)C)C(C)C)nc12 [Example 155, N-(3-Chloro-2-methylphenyl)-2-{[2-(dipropan-2-ylamino)ethyl]amino}-6-({[2-(trifluoromethyl)phenyl]carbonyl}amino)-1H-benzimidazole-4-carboxamide hydrochloride] | 101 | 209 |  |
| COCC(C)(C)CNc1nc2c(C(=O)Nc3cccc(Cl)c3C)cc(NC(=O)c3ccccc3C(F)(F)F)cc2[nH]1 [Example 163, N-(3-Chloro-2-methylphenyl)-2-[(3-methoxy-2,2-dimethylpropyl)amino]-6-({[2-(trifluoromethyl)phenyl]carbonyl}amino)-1H-benzimidazole-4-carboxamide hydrochloride] | 5.9 | 23.2 |  |
| Cc1c(Cl)cccc1NC(=O)c1cc(NC(=O)c2cc(C#CC3CC3)ccc2Cl)cc2[nH]c(N(C)C)nc12 [Example 188, 6-({[2-Chloro-5-(cyclopropylethynyl)phenyl]carbonyl}amino)-N-(3-chloro-2-methylphenyl)-2-(dimethylamino)-1H-benzimidazole-4-carboxamide hydrochloride] | 457 | 1020 |  |
| COCc1nc2c(C(=O)Nc3ccc(OC)cc3)cc(NC(=O)c3ccccc3C(F)(F)F)cc2[nH]1 [Example 37, 2-(Methoxymethyl)-N-(4-methoxyphenyl)-6-({[2-(trifluoromethyl)phenyl]carbonyl}amino)-1H-benzimidazole-4-carboxamide] | 23.3 | 265 |  |
| Cc1c(Cl)cccc1NC(=O)c1cc(NC(=O)c2ccccc2C(F)(F)F)cc2[nH]c(N3CC(O)C3)nc12 [Example 148, N-(3-Chloro-2-methylphenyl)-2-(3-hydroxyazetidin-1-yl)-6-({[2-(trifluoromethyl)phenyl]carbonyl}amino)-1H-benzimidazole-4-carboxamide hydrochloride] | 1.9 | 324 |  |
| COCc1nc2c(C(=O)Nc3ccccc3C)cc(NC(=O)c3ccccc3C(F)(F)F)cc2[nH]1 [Example 22, 2-(Methoxymethyl)-N-(2-methylphenyl)-6-({[2-(trifluoromethyl)phenyl]carbonyl}amino)-1H-benzimidazole-4-carboxamide hydrochloride] | 4.8 | 104 |  |
| CCOCCOc1ccc(Cl)c(C(=O)Nc2cc(C(=O)Nc3cccc(Cl)c3C)c3nc(COC)[nH]c3c2)c1 [Example 115, 6-({[2-Chloro-5-(2-ethoxyethoxy)phenyl]carbonyl}amino)-N-(3-chloro-2-methylphenyl)-2-(methoxymethyl)-1H-benzimidazole-4-carboxamide hydrochloride] | 11.5 | 37 |  |
| CSCCNc1nc2c(C(=O)Nc3cccc(Cl)c3C)cc(NC(=O)c3ccccc3C(F)(F)F)cc2[nH]1 [Example 178, N-(3-Chloro-2-methylphenyl)-2-{[2-(methylsulfanyl)ethyl]amino}-6-({[2-(trifluoromethyl)phenyl]carbonyl}amino)-1H-benzimidazole-4-carboxamide hydrochloride] | 1.2 | 12.8 |  |
| COCc1nc2c(C(=O)Nc3cccc(Cl)c3CO)cc(NC(=O)c3ccccc3C(F)(F)F)cc2[nH]1 [Example 234, N-[3-Chloro-2-(hydroxymethyl)phenyl]-2-(methoxymethyl)-6-({[2-(trifluoromethyl)phenyl]carbonyl}amino)-1H-benzimidazole-4-carboxamide] | 97.4 | 198 |  |
| CCOc1nc2c(C(=O)NCc3ccccc3C(F)(F)F)cc(NC(=O)c3ccccc3C(F)(F)F)cc2[nH]1 [Example 56, 2-Ethoxy-N-[2-(trifluoromethyl)benzyl]-6-({[2-(trifluoromethyl)phenyl]carbonyl}amino)-1H-benzimidazole-4-carboxamide] | 7.5 | 85 |  |
